Measured values reported in US7947470B2, “Polynucleotides encoding hOCTN1 polypeptide” (Chugai Seiyaku Kabushiki Kaisha, priority 1997, dated 2011).
Starred links: 1 amine or outer side, 2 acyl side, 3 side chain; linkers in the order of their positions; H or OH if unused. Positions of bridges follow the written chain, without caps; N, C: chain ends. Non-standard residues stand in square brackets, D forms with d. Residues, ends and D or L forms follow the SMILES beside them. Chains are numbered I, II in the order given. Actinocin(9to1) = Cc1c2oc3c(C)ccc(C(=O)[*:1])c3nc-2c(C(=O)[*:2])c(N)c1=O; NMeV = CN[C@H](C(=O)O)C(C)C; Sar = CNCC(=O)O

Legend:
Type in all cases: cell-based
human OCTN1 [1] = biological target: T1, human OCTN1 (Homo sapiens, UniProt Q9H015, I306T/L503F); assay: Transport experiment in HEK293 cells transfected with human OCTN1 (pcDNA3/OCTN1); settings: for uptake of labeled substrate into human OCTN1-transfected cells: HEK293 cells, compared with Mock or untreated cells, 37° C.
T1 construct: cDNA containing the entire ORF which was cleaved out with SmaI and EcoRI was integrated; expressed in transfected cells; host or cells: Xenopus oocytes injected with 15 ng cRNA transcribed in vitro from pcDNA3/OCTN1
T1 sequence (Q9H015 1-551 I306T/L503F): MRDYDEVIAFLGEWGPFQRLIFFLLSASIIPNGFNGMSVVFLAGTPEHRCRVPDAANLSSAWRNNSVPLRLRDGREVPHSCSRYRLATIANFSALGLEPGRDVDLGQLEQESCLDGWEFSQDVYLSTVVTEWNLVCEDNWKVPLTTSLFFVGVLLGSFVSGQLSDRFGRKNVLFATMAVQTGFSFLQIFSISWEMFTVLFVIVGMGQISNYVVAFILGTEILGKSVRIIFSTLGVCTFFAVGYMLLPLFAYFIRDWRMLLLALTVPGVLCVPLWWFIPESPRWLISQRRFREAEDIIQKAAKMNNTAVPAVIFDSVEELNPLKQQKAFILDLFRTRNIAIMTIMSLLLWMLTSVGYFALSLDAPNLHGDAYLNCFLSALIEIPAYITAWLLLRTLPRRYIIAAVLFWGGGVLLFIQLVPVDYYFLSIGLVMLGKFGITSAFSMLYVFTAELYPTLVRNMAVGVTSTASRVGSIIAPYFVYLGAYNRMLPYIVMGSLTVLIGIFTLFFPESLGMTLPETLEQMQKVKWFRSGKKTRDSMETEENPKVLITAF
Procedure: The human fetal-kidney-derived cell strain, HEK 293 cells were transfected with the plasmid pcDNA3/OCTN1 and pcDNA3 vector containing no insert as a control by the calcium phosphate method. First, the plasmid DNA (10 μg), a Hepes buffer solution (137 mM NaCl, 5 mM KCl, 0.7 mM Na2HPO4, 6 mM Dextrose, and 21 mM Hepes pH 7.1) (1 ml), and 2 M CaCl2 (62.5 μl) were combined and allowed to stand at room temperature for 30 min or more to form calcium phosphate coprecipitates. After cells were plated on 10-cm plates at 1.5×10^6 cells per plate and cultured for 24 h, the calcium phosphate coprecipitates were added thereto, and the cells were further cultured for 24 h. Then, plates were washed with phosphate buffered saline (PBS), and the cells were further cultured for 24 h after the addition of fresh culture medium.
(§1) Transport experiment was performed using cells transfected with the plasmid DNA or untreated cells according to the following procedures. Cells were detached from plates using a rubber policeman, suspended in a transport buffer (containing 125 mM NaCl, 4.8 mM KCl, 5.6 mM (+)-glucose, 1.2 mM CaCl2, 1.2 mM KH2PO4, 1.2 mM MgSO4, and 25 mM Hepes pH 7.4), and pre-incubated for 20 min. An appropriate amount of each labeled substrate ([^14C]TEA (tetraethylammonium) (NEN), [^3H]carnitine (L-carnitine hydrochloride) (Amersham), [^3H]PCG (benzylpenicillin) (Amersham), [^3H]quinidine (ARC), or [^3H]pyrilamine (mepyramine) (Amersham)) was then added to the cell suspension, and the resulting mixture was incubated at 37° C. for a predetermined period of time. Incubated cells were overlaid on a silicon layer prepared by layering a mixture of silicon oil and liquid paraffin (specific gravity 1.022) on a 3 M KCl layer, and separated by centrifugation. Radioactivity of cells was measured to determine the into-the-cell transport activity. In this case, 1×10^6 cells were used as one point of cells. HEK 293 cells were cultured in Dulbecco's MEM containing 10% fetal calf serum (FCS) in an atmosphere of 5% carbon dioxide at 37° C.
First, the transporter capacity was measured in the cells transfected with pcDNA3/OCTN1 and untreated cells using TEA as a substrate (FIG. 5). […] Next, effects of the addition of unlabeled TEA on the labeled substrate uptake in this system (cold inhibition) was examined (FIG. 6). […] Next, to obtain the Km (Michaelis constant) value of human OCTNL to TEA, the uptake of ^14C-TEA with various concentrations was measured (FIG. 7). […] Next, the transport capacity of human OCTN1 for other substrate than TEA was examined (FIG. 8).

human OCTN1 [2] = biological target: T1, human OCTN1; assay: Transport experiment using Xenopus oocytes injected with human OCTN1 cRNA; settings: 25° C., 1 h, compared with water-injected oocytes
Procedure: cRNA was synthesized in vitro using T7 RNA polymerase with pcDNA3/OCTN1 as a template. This cRNA was diluted to the concentration of 0.3 ng/nl, and its 50-nl (15 ng) aliquot was injected into a single oocyte. As a control, 50 nl of distilled water was injected. These oocytes were cultured for 3 days, and then used for the transport experiment. After being preincubated in an uptake buffer (0.05% Tween 80, 100 mM NaCl, 2 mM KCl, 1 mM CaCl2, 1 mM MgCl2, and 10 mM Hepes pH 7.4) at 25° C. for 20 min, the oocytes were transferred to the uptake buffer containing 0.5 ml of labeled substrate to initiate the uptake. After the incubation at 25° C. for 1 h, the oocytes were washed in the ice-cold uptake buffer three times to terminate the reaction. The oocytes were solubilized in 5% SDS and mixed with Cleasol I (a cocktail for liquid scintillation counter) (3 ml) to determine the radioactivity. The radioactivity of the uptake buffer which contained the labeled compound at the time of incubation (external solution) (10 μl) was also similarly measured. The ratio of the radioactivity (dpm value) in the oocytes to that (dpm value) in the external solution was used as the uptake activity.

human OCTN2 = biological target: T2, human OCTN2 (Homo sapiens, UniProt O76082); assay: Transport experiment in HEK cells transfected with human OCTN2 (pcDNA3/OCTN2); settings: for transport by human OCTN2: HEK cells transfected with pcDNA3/OCTN2, compared with Mock and pcDNA3/OCTN1
T2 construct: clones from both fragments were ligated at the PstI site in the overlapping region; expressed in transfected cells
T2 sequence (O76082 1-557): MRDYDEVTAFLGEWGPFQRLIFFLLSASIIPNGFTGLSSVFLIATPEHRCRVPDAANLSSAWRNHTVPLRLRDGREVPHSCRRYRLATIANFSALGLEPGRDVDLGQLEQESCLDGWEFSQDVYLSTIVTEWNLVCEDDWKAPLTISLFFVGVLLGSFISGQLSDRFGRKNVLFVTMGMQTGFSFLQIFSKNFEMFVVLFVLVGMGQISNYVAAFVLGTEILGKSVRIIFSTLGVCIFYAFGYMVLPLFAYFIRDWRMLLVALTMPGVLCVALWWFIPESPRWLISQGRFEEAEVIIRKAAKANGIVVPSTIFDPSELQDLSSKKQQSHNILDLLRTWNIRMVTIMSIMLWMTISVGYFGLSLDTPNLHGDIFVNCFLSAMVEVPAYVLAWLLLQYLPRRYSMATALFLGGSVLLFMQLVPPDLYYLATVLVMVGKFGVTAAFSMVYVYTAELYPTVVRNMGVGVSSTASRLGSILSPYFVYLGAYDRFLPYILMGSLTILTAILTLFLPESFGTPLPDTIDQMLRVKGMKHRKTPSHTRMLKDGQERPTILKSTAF
Procedure: as §1
HEK cells were transfected with pcDNA3/OCTN2, the pcDNA3 vector containing no insert (Mock), or pcDNA3/OCTN1 by the method described in Example 6 to perform transport experiments.
Next, Na^+ dependence of human OCTN2-mediated carnitine transport was examined using a transport buffer in which Na^+ was replaced with K+(FIG. 12).

| SMILES | uptake of labeled substrate into human OCTN1-transfected cells (human OCTN1 [1]) | uptake activity / transport capacity of human OCTN1 cRNA-injected oocytes (human OCTN1 [2]) | further results |
| --- | --- | --- | --- |
| CC1(C)S[C@@H]2[C@H](NC(=O)Cc3ccccc3)C(=O)N2[C@H]1C(=O)O [PCG, benzylpenicillin] | no significant increase in the uptake | – | – |
| CC[N+](CC)(CC)CC [TEA, tetraethylammonium] | reaction time-dependent TEA uptake into the human OCTN1-transfectd cells was clearly observed | expresses the transport capacity | transport by human OCTN1 (comparison with OCTN2) (human OCTN1 [1]; HEK cells transfected with pcDNA3/OCTN1, Example 8): efficiently transported by human OCTN1; maximal velocity, Vmax (human OCTN1 [1]; Lineweaver-Burk plot of net uptake (OCTN1-transfected minus Mock HEK293 cells), 14C-TEA): 6.68±0.34 nmol/3 min/mg; Km (human OCTN1 [1]; Lineweaver-Burk plot of net uptake (OCTN1-transfected minus Mock HEK293 cells), 14C-TEA, read-out: Km (Michaelis constant) value of human OCTN1 to TEA): 440 ± 40 µM; effect of unlabeled (cold) TEA on labeled substrate uptake (cold inhibition) (human OCTN1 [1]; human OCTN1-transfected HEK293 cells): decrease in the apparent uptake of the labeled substrate was clearly seen depending on the concentration of cold TEA added; transport by human OCTN2 (human OCTN2): hardly transported |
| Cc1c2oc3c(C)ccc(C(=O)N[C@@H]4C(=O)N[C@H](C(C)C)C(=O)N5CCC[C@H]5C(=O)N(C)CC(=O)N(C)[C@@H](C(C)C)C(=O)O[C@@H]4C)c3nc-2c(C(=O)N[C@@H]2C(=O)N[C@H](C(C)C)C(=O)N3CCC[C@H]3C(=O)N(C)CC(=O)N(C)[C@@H](C(C)C)C(=O)O[C@@H]2C)c(N)c1=O [actinomycin D] (I: T[dV]P[Sar][NMeV] / II: T[dV]P[Sar][NMeV]; ester I:1-I:C, II:1-II:C; linker I:N-II:N via Actinocin(9to1)) | – | has the activity to transport | – |
| C[N+](C)(C)C[C@H](O)CC(=O)[O-].Cl [carnitine, L-carnitine hydrochloride] | significant increase in the uptake | expresses the transport capacity | transport by human OCTN2 (human OCTN2): high capacity to efficiently transport; carnitine transport activity of human OCTN2 in the absence of Na+ (human OCTN2; absence of Na+): no such activity; carnitine transport activity of human OCTN2 in the presence of Na+ (human OCTN2; presence of Na+): time-dependent carnitine transport activity; Na+ dependence of human OCTN2-mediated carnitine transport (human OCTN2; transport buffer in which Na+ was replaced with K+): completely depended on the presence of Na^+ |
| COc1cccc2c1C(=O)c1c(O)c3c(c(O)c1C2=O)C[C@@](O)(C(C)=O)C[C@@H]3O[C@H]1C[C@H](N)[C@H](O)[C@H](C)O1 [daunomycin] | – | has the activity to transport | – |
| COc1cc([C@@H]2c3cc4c(cc3[C@@H](O[C@@H]3O[C@@H]5CO[C@@H](C)O[C@H]5[C@H](O)[C@H]3O)[C@H]3COC(=O)[C@H]23)OCO4)cc(OC)c1O [etoposide] | – | has the activity to transport | – |
| COc1ccc(CN(CCN(C)C)c2ccccn2)cc1 [pyrilamine] | significant increase in the uptake | expresses the transport capacity | – |
| C=C[C@H]1C[N@@]2CC[C@H]1C[C@@H]2[C@@H](O)c1ccnc2ccc(OC)cc12 [quinidine] | significant increase in the uptake | expresses the transport capacity | – |
| CC[C@]1(O)C[C@@H]2CN(CCc3c([nH]c4ccccc34)[C@@](C(=O)OC)(c3cc4c(cc3OC)N(C)[C@H]3[C@@](O)(C(=O)OC)[C@H](OC(C)=O)[C@]5(CC)C=CCN6CC[C@]43[C@@H]65)C2)C1 [vinblastine] | – | has the activity to transport | – |
